These results are taken from paper PMC11945486, “TAS1R2/TAS1R3 Single-Nucleotide Polymorphisms Affect Sweet Taste Receptor Activation by Sweeteners: The SWEET Project” (Nutrients, 2025).

The target in the assay is T1, human TAS1R2-S212G (subunit alone) (Homo sapiens, UniProt Q8TE23, S212G).
T1 construct: expressed in transfected cells; host or cells: HEK293T-Gα16gust44
T1 sequence (Q8TE23 20-839 S212G): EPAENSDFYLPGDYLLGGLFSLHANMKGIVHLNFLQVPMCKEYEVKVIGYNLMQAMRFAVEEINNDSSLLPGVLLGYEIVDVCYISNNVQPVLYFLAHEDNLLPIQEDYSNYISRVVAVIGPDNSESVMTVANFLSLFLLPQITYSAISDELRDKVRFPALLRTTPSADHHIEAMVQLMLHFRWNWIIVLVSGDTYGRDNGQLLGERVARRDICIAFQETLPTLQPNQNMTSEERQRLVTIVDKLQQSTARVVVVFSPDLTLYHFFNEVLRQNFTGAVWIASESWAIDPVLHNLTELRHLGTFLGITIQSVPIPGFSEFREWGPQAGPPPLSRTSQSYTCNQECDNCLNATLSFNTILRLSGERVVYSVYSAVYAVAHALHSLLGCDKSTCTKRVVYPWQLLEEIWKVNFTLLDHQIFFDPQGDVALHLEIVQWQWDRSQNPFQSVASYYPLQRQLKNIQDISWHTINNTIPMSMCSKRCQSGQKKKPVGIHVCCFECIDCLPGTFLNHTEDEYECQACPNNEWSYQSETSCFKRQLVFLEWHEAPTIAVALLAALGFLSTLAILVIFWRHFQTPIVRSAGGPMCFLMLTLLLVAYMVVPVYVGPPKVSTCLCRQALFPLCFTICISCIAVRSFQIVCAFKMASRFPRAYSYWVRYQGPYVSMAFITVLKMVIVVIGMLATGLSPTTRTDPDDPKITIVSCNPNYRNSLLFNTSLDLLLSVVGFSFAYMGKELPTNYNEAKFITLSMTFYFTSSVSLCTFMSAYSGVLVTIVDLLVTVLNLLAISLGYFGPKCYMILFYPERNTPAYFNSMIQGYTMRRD
The assay is described as follows: Calcium mobilisation assay, TAS1R2-S212G subunit alone. It is filed as cell-based. From the text:
The coding sequences for TAS1R2 and TAS1R3 were commercially synthesised, and the human codon was optimised for expression in human cells. The coding sequences of human TAS1R2 and TAS1R3 were subcloned and inserted into the mammalian expression vectors pcDNA6/myc-HisA and pcDNA4/myc-HisA (Invitrogen; Thermo Fisher Scientific; Illkirch, France) between the EcoRI and NotI restriction sites, generating the plasmids pcDNA6-TAS1R2 and pcDNA4-TAS1R3, respectively. To increase protein expression in mammalian cells, an upstream start codon was used, which was a sequence called MAX, corresponding to the QBI SP163 element also described in pcDNA4-HisMax (Invitrogen; Thermo Fisher Scientific; Illkirch, France). To measure the expression level of the receptor by immunohistochemistry, we used the FLAG sequence ([…]) in the C-terminal position, which encodes the FLAG tag epitope. […]
The HEK293T cells were kindly provided by Jay P. Slack (Givaudan Flavors Corporation; Cincinnati, OH, USA). […] The fluorescence intensity was measured for 90 s (excitation 488 nm, emission 510 nm) in an automated fluorometric FlexStation®3 Multi-Mode microplate reader (Molecular Devices; San Jose, CA, USA). […] The Ca^2+ changes were expressed as fractional changes in fluorescent light intensity: ΔF/F = (F − F0)/F0, where F was the fluorescent light intensity at each point, and F0 was the value of emitted fluorescent light prior to stimulus application. To calculate dose–response relationships, the changes in fluorescence upon stimulus application were averaged, mock-subtracted and baseline-corrected. […] The half-maximal effective concentrations (EC50 values) and maximal signal amplitudes were calculated using SigmaPlot software (version 15.0) (Systat Software; San Jose, CA, USA).
For in vitro calcium mobilisation assay performed on hTAS1R2-SNPs, hTAS1R3-SNPs and mTAS1R3-I60T, 6 to 7 concentrations were tested for each sweet compound, plus buffer alone. All concentration–receptor combinations were measured in duplicate, and each experiment was repeated at least 4 times (8 wells/concentration). […]
For orientation: Calcium assays in cells follow changes in intracellular calcium, usually with a dye or a luminescent sensor.

By EC50 is commonly meant the concentration giving half of the maximal effect.

`C=C(C)[C@@H]1CC=C(/C=N/O)CC1` [Perillartine, perillartine]: the EC50 was found to be 178 ± 22.7 µM and the “R1 = Variant EC50/WT EC50” value is listed as 2.0. Further, where the note is “maximal signal amplitude”, the “Max ΔF/F0” value was 0.47 ± 0.02.
